Reference: US6692557B1, “Antifouling of shellfish and aquaculture apparatus” (Unisearch Limited, priority 1997, dated 2004)

How the values were obtained:
fouling organisms = experiment: Stage II shellac trial: fouling on coated perspex tiles; assay type: in vivo; details: shellac carrier, 10% double layer, 15% single and double layers, controls 75% fouling cover after 4 weeks
Description: (§1) The shellac trial (stage II) was run for 30 weeks. This experiment was conducted to improve novel antifouling techniques for the aquaculture industry. Shellac was used as a carrier to coat Sea-Nine 211™ onto perspex tiles to determine whether Shellac with C9-211 was effective as an antifouling application and whether the rate at which Sea-Nine 211™ would leach out of the shellac formulation.

Pacific oyster recruits = experiment: Port Stephens Stage I field trial: Pacific oyster bycatch on coated oysters; assay type: in vivo; details: sub-tidal, double coated treatments, at either 10 or 15%
Source text: After twelve weeks into the fouling trial there was a Pacific oyster settlement event. This enabled an observation of the efficacy of the different coatings as inhibitors of oyster bycatch. FIG. 9 presents the number of new Pacific oyster recruits that settled on the coated oysters.

[1] = Stage II shellac trial: leaching / release of Sea-Nine 211 from shellac; assay type: physicochemical
Description: as §1
Measurements of leaching were carried out to determine the decrease in concentration of Sea-Nine 211™ in each treatment, as shown on FIG. 11. This indicates a regular rate of leaching over the 18 week trial period for each treatment of the same concentration. The rate of leaching is highest for the 15% Sea-Nine 211™ loadings (single and double), while decreasing with reduced compound loading.
The rate of compound release per day is important on determining the effectiveness of a given treatment over time (FIG. 12). Treatments 5% single layer, 10% single and double layer and 15% double layer had the highest initial drops with release rates from 1-2 μg/cm^2/day. The release rate varied for each treatment, over the following 16 weeks, but remained less than 2.0 μg/cm^2/day (FIG. 12).

[2] = tested on: fouling organisms (predominantly barnacles, small percentages of bryozoans and oysters); experiment: Port Stephens Stage I field trial: fouling cover on coated live oysters; assay type: in vivo; details: sub-tidal; for Mean fouling cover on coated oysters: 22 week trial, untreated control 50%
Source text: The field trial testing the antifouling coatings on oysters at the Port Stephens Fisheries Centre was finalised on week 22 of the trial. This coincided with the slight increase, at varying rates, of the fouling cover on the treated oysters, as shown by FIG. 8.
The trial was testing the antifouling efficacy of two different active ingredients (AI's). Sea-Nine 211™ and the furanone 281, incorporated into carrier coatings when applied to live oysters. The AI's are being tested at concentrations ranging from 10-15% by weight of the carrier coating, using both single and double coats. The trial was conducted in both the inter-tidal and the sub-tidal. In addition to monitoring fouling, oyster mortality was monitored to determine if the coatings and methods used were harmful to the oysters.
Fouling cover was first measured 6 weeks after the start of the trial and has been measured every 3 weeks thereafter. Coated oysters were photographed in the field using a digital camera and fouling cover was measured in the laboratory using the digital images. Fouling cover was measured by estimating the percentage cover of fouling organisms on the oysters. The fouling cover observed was comprised predominantly of barnacles and a small percentages of bryozoans and oysters.

**Q.** Which results are given for `CCCCCCCCn1sc(Cl)c(Cl)c1=O` [Sea-Nine 211™, 4,5-dichloro-2-n-octyl-4-isothiazolin-3-one]?
**A.** Time tiles remained unfouled (fouling organisms): 30 weeks; Inhibition of Pacific oyster bycatch (Pacific oyster recruits): almost totally inhibiting bycatch; Rate of leaching from shellac ([1]; 15% loadings (single and double), 18 week trial period): highest; Release rate from shellac ([1]; each treatment, over the following 16 weeks): less than 2.0 μg/cm^2/day; Release rate from shellac ([1]; initial, treatments 5% single layer, 10% single and double layer, 15% double layer): 1-2 μg/cm^2/day; Mean fouling cover on coated oysters ([2]; active ingredient 10%, single and double coatings): 20%; Mean fouling cover on coated oysters ([2]; active ingredient 15% in carrier coating, single and double coats): 15%; Inhibition of fouling cover ([2]; 15% single and double coats): 85%
